The values that follow come from patent publication US9926354B2, “Amyloid precursor protein (APP) based Ã#-secretase inhibitor peptides, and methods of use” (UNIVERSITY OF SOUTH FLORIDA, priority 2014, dated 2018).

Assay [1] has as its target T1, BACE1 (Homo sapiens, UniProt P56817). The assay is described as follows: Binding to and cleavage by recombinant BACE1 (WB, IP). The following applies: biotin-labeled peptide, recombinant BACE1, 4 hours. The protocol:
Biotin-labeled TAT-APPsweBBP was incubated with or without recombinant BACE1 protein and examined by western blot (A). Full length TAT-APPsweBBP and β-cleaved TAT-APPsweBBP were clearly detected. Immunoprecipitation (IP) with anti-BACE1 antibody and subsequent WB with anti-biotin antibody (B) and IP with anti-biotin antibody and then WB with anti-BACE1 antibody (C) both reveal that TAT-APPsweBBP, but not TAT peptide, binds to BACE1. To further confirm TAT-APPswcBPP can bind to BACE1, human wild-type APP expressing CHO cells were incubated with biotin-labeled TAT-APPsweBBP or biotin-labeled APPsweBBP at 20 μM for 30 minutes, and then stained with anti-BACE1 or anti-biotin antibodies (D). […] In addition, these treated cells were further analyzed by IP with anti-biotin and subsequent WB with anti-BACE1 antibodies (E), with results showing that TAT-APPsweBBP strongly and specifically binds to BACE1.
In order to confirm that APPsweBBP containing the β-cleavage site could bind to and be consequently proteolyzed by BACE1, 10 μg of biotin-labeled TAT-APPsweBBP was incubated with or without 10 μL of recombinant BACE1 protein (1.0 U/mL) in BACE1 reaction buffer for 4 hours at 37° C. and then subjected to Western blot (WB) analysis as described previously (Rezai-Zadeh et al., 2005; Obregon et al., 2012). […]

Assay [2] concerns CHO cells over-expressing human Swedish mutant APP (CHO/APPswe). The assay can be described thus: Aβ and sAPPα production in cultured media of CHO/APPswe cells by ELISA. In kind it is cell-based, Chinese hamster. Particulars: 20 μg/mL, 24 hours. The protocol:
Cell Culture—Chinese hamster ovary (CHO) cells engineered to express wild-type human APP (CHO/APPwt cells) or Swedish mutant human APP (CHO/APPswe cells) were kindly provided by Dr. Stefanie Hahn and Dr. Sascha Weggen (University of Heinrich Heine, Dusseldorf, Germany). As described previously (Obregon et al., 2012), these cells were cultured in Dulbecco's modified Eagle's medium (DMEM) with 10% fetal bovine serum (FBS), 1 mM sodium pyruvate, and 100 units/mL of penicillin and streptomycin.
To confirm the binding of APPsweBBP with BACE1, CHO/APPwt cells were plated in 8-well chambers (5×10^5/well), incubated with TAT-APPsweBBP-biotin or APPsweBBP-biotin at 20 μM for 30 minutes, fixed with 4% paraformaldehyde for 20 minutes, washed and permeabilized with 0.5% Triton X-100. Following application of blocking buffer, these cells were stained with mouse anti-BACE1 and rabbit anti-biotin antibodies overnight at 4° C. for immunocytochemistry analysis. In order to determine the inhibitory effects of TAT-APPsweBBP on BACE1-mediated APP β-cleavage and subsequent Aβ production, both CHO/APPwt and CHO/APPswe cells were plated in 24 well-plates (3×10^5/well) and treated with TAT-APPsweBBP at 0-20 μM for 24 hours. The cultured media were collected for Aβ analysis by enzyme-linked immunosorbent assay (ELISA) and sAPPα analysis by ELISA and Western blot (WB). Cell lysates were also prepared for analysis of APP amyloidogenic processing by WB.
ELISA—Mouse brains were homogenized in ice-cold lysis buffer for 30 seconds using a Minilys tissue homogenizer (Bertin Technologies, Montigny-le-Bretonneux, France) set at high speed, allowed to stand for 15 minutes at 4° C., and centrifuged at 15,000 rpm for 30 minutes. Soluble Aβ1-40/42 species and sAPPα were directly detected in cultured cell media or brain homogenates using the Aβ1-40/42 (Invitrogen) and sAPPα ELISA kits (IBL-America, Minneapolis, Minn., USA).
To further examine the ability of the Swedish mutant APP BACE1 binding peptide/Tat fusion peptides to decrease Aβ production, CHO cells overexpressing either human wild-type APP (CHO/APPwt cells) or Swedish mutant APP (hereinafter referred to as “CHO/APPswe cells”) are treated with a variety of APP-based BACE1 inhibitor peptides, as shown in Table 1 and Table 2. Aβ production is determined using ELISA.
A general note: ELISA stands for enzyme-linked immunosorbent assay.

Assay [3] deals with T1, BACE1. The assay can be described thus: BACE1 activity assay (FRET, cell-free). The assay is classed as biochemical. Further details: purchased Pan Vera Co., Madison, Wis., USA. Particulars: peptide final concentration 20 μM, 90 minutes, room temperature. The protocol:
BACE1 Activity Assay—The BACE1 inhibiting activity of APP-based BACE1 site binding peptides were determined using a fluorescence resonance energy transfer (FRET) assay (Pan Vera Co., Madison, Wis., USA), which employs a recombinant baculovirus-expressed BACE1 and a specific substrate (Rh-[…]-quencher) that is based on the APPswe mutation. This specific peptide substrate becomes highly fluorescent upon enzymatic cleavage. A mixture of 10 μL of BACE1 (1.0 U/mL in 50 mM Tris, pH7.5, 10% glycerol), 10 μL of FRET-substrate, and 10 μL of the various APP-based BACE1 site binding peptides (final concentration 20 μM) were incubated for 90 minutes in the dark at room temperature. Then, 10 μL of BACE1 stop buffer (2.5 M sodium acetate) was added to the mixture. Fluorescence was read using a fluorometer, with excitation at 545 nm and emission at 585 nm.
As a required enzyme for the generation of neurotoxic Aβ from APP, BACE1 is well established as an important mediator of AD β-amyloid pathology. As such, it has become an important target for new disease modifying therapeutics. However, since BACE1 also has important physiological roles, abolishment of the enzyme or its activity may lead to deleterious side effects as evidenced by numerous failed clinical trials discussed previously. […] Since previous studies have established a close relationship between α-helix structure and peptide-protein (or protein-protein) interactions (Azzarito, 2013; Rao et al., 2013), several APP based peptides were synthesized that might serve as a preferable substrate for BACE1. Importantly, these peptides were free of the Aβ-containing segment and, thus, cannot be amyloidogenic. In theory, these could be used to “hijack” the BACE1 processing of endogenous APP and lead to a decrease in cerebral Aβ. These BACE1 substrates and controls were incubated with recombinant BACE1 and percent of inhibition of the enzyme was calculated. […] These findings indicate that the α-helical TAT fusion domain may help to promote selective APPsweBBP proteolysis by BACE1, yielding substrate competition against human wild-type APP.

T1 sequence (P56817 46-501): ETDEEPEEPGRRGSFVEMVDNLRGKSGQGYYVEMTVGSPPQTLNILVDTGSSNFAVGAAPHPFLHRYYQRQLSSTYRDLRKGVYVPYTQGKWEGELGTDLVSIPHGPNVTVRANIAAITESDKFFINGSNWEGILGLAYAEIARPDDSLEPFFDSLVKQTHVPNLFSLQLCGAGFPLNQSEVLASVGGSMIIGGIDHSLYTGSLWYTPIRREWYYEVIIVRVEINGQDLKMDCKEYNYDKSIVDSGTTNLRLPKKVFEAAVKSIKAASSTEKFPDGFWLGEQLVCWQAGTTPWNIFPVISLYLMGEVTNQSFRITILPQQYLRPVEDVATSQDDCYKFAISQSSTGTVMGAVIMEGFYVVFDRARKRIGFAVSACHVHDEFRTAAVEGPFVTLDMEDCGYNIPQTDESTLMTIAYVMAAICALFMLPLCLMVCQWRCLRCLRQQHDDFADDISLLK

Take YGRKKRRQRRR [TAT, reference compound]: the “binding to BACE1 protein (IP/WB)” value with BACE1 [1] is given as “not observed”. Moreover, in assay [2], the “Secreted Aβ40 (ng/mg; mean ± SD)” value was 66.71 ± 12.02 ng/mg, the “Secreted Aβ42 (ng/mg; mean ± SD)” value turned out to be 10.76 ± 2.12 ng/mg and the “Secreted sAPPα (ng/mg; mean ± SD)” value was 196.98 ± 17.77 ng/mg. Also, the “% of inhibition (mean ± SD) of BACE1” value with BACE1 [3] was 3.32 ± 0.02%.
